Measurements as given in patent publication EP4759810A1, “PROTAC TARGETING BCL-XL PROTEIN AND USE THEREOF” (BEIJING SUNCELL BIO-MEDICAL CO., LTD., priority 2023, dated 2025).
Read-outs that look alike come from different tables or passages of the source.

Tests used:
Molt-4 cells [1] = experiment: Molt-4 cell killing activity test (CCK-8); format: cell-based; conditions: for killing Molt-4 cells at different concentrations (Figure 1), in words: 0.001-3 µM, comparison with control molecules; for activity for killing Molt-4 cells, in words: comparison with C1, the targeting ligand or control molecules
Description: (§1) Molt-4 cells were cultured and amplified in 10 cm dishes by using RPMI-1640 medium supplemented with 10% fetal bovine serum. Actively growing and healthy Molt-4 cells were collected, centrifuged at 1000 rpm for 5 minutes, and after removing the supernatant, the cells were resuspended in fresh RPMI-1640 medium containing 10% fetal bovine serum. Cell counting was then performed. The cell density was adjusted to 120,000 cells per milliliter, and 100 µL of the cell suspension was added to each well of a 96-well transparent cell culture plate. It was noted that the edge wells of the 96-well plate were not used for testing; and 300 µL of PBS alone was added to these wells to reduce medium evaporation.
The small molecule compounds to be tested for activity were prepared. A series of small molecule concentration gradients (0.001, 0.003, 0.01, 0.03, 0.1, 0.3, 1, and 3 µM) were pre-set, and a series of 2× drug dilutions for the above concentrations were prepared in RPMI-1640 medium containing 10% fetal bovine serum. 100 µL of the above medium containing the gradient concentrations of the drug was added to each well of a 96-well plate pre-seeded with cells, so that the final drug concentration in each well was the pre-set concentration gradient. Three replicate wells were used for each tested drug concentration. The 96-well plate was placed back in a 37°C incubator, and the cell viability was measured after three days.
The plate was taken out three days after adding the drugs, and 100 µL of pre-prepared CCK-8 working solution was added to each well. The CCK-8 working solution was obtained through diluting a CCK-8 stock solution (C0041, Beyotime) by 10-fold volumn with a serum-free RPMI-1640 medium. The 96-well plates with the added CCK-8 working solution were placed back in the 37°C incubator and incubated for 0.5-2 hours. The plates were then taken out, and the absorbance value (OD value) of each well was measured at a wavelength of 450 nm, and the cell viability in each experimental group was calculated according to the following formula: Relative cell viability (%) = […] × 100%.

[2] = Metabolic stability assay in liver microsomes (mouse); format: in vitro ADME
Description: (§2) The metabolic reaction of compounds in liver microsome was performed in a system with a total volume of 400 µL, and the following steps below were sequentially performed for the reaction and detection: 1) 200 µL of phosphate buffer (200 mM), 106 µL of sterile ultrapure water, and 40 µL of magnesium chloride solution (50 mM) were added to each detection tube to prepare a reaction working solution. 2) Two reaction systems with or without adding NADPH were prepared for each compound to be tested. For the reaction system with adding NADPH: 10 µL of liver microsomes (20 mg/mL) and 40 µL of NADPH (10 mM) were added to the above working solution; for the reaction system without adding NADPH: 10 µL of liver microsomes (20 mg/mL) and 40 µL of sterile ultrapure water were added to the above working solution. The final concentration of liver microsomes in both reaction systems was 0.5 mg/mL. 3) 4 µL of the compound to be tested ([…]) was added to each reaction tube, resulting in a final concentration of 1 µM for the compound in the reaction system. The detection tubes were placed at 37°C for reaction. 4) 50 µL samples were taken from each detection tube at 0, 15, 30, 45, and 60 minutes after adding the compound. The reaction was terminated by adding cold acetonitrile containing IS (100 nM alprazolam, 200 nM labetalol, 200 nM caffeine, and 2 µM ketoprofen) in a 4× volume. The samples were centrifuged at 3220 g for 40 minutes, 100 µL of the supernatant was mixed with 100 µL of ultrapure water, and a sample was taken for LC-MS/MS analysis.
(§3) Calculation of in vitro liver microsomal metabolic half-life and in vitro metabolic intrinsic clearance rate: The LC-MS detection results were analyzed to obtain the percentage of the remaining amount of the tested compound relative to the initial amount at each time point. The natural logarithm of the remaining percentage was linearly fitted against the incubation time.

[3] = Metabolic stability assay in liver microsomes (human); format: in vitro ADME
Description: as §2, §3

Molt-4 cells [4] = experiment: Detection of E3 enzyme-dependence: Molt-4 cell killing with or without pomalidomide (CCK-8); format: cell-based; conditions: 10 µM pomalidomide, Figure 2
Description: as §1, with “Actively” for “Molt-4 cells were cultured and amplified in 10 cm dishes by using RPMI-1640 medium supplemented with 10% fetal bovine serum. Actively”, “testing,” for “testing;”
Molt-4 cells were plated in duplicate according to the number of the tested small molecules, so as to test the effects with and without the addition of pomalidomide (a competitive ligand specific for E3 ligase), in which one half of the parallel cells was added 10 µM pomalidomide. A series of small molecule concentration gradients (0.001, 0.003, 0.01, 0.03, 0.1, 0.3, 1, and 3 µM) were pre-set, and a series of 2× drug dilutions for the above concentrated were prepared in DMEM medium containing 10% fetal bovine serum. 100 µL of the above DMEM medium containing the gradient concentrations of the drug was added to 96-well plates that have been pre-plated with cells, so that the final drug concentration in each well was the pre-set series of concentrations respectively. Three replicate wells were used for each test drug concentration. The 96-well plates were placed back in a 37°C incubator, and the cell viability was detected after three days.
Cell viability after drug treatment was detected by using the CCK-8 method: three days after adding the drugs, the plates were taken out, and the supernatant was discarded. Then, 100 µL of pre-prepared CCK-8 working solution was added to each well. The CCK-8 working solution was obtained through diluting a CCK-8 stock solution (C0041, Beyotime) by 10-fold volumn with a serum-free DMEM culture medium. The 96-well plates with the added CCK-8 working solution were placed back in the 37°C incubator and incubated for 0.5-2 hours. The plates were then taken out, and the absorbance value (OD value) of each well was measured at a wavelength of 450 nm. The cell viability in each experimental group was calculated according to the following formula: Relative cell viability (%) = (Blank control group - Experimental group) / Blank control group × 100%.

[5] = Homo sapiens, 72 h, Molt-4 cells, three days, CCK-8, read-out: EC50 (Molt-4)
[6] = Homo sapiens, Bcl-xL-positive Molt-4 cells, read-out: cellular activity / killing activity (Molt-4 cells)
[7] = mouse liver microsomes 0.5 mg/mL, 1 µM compound, 37°C
[8] = human liver microsomes 0.5 mg/mL, 1 µM compound, 37°C

SMILES	EC50 (Molt-4 cells [1]; [5]) [nM]	activity for killing Molt-4 cells, in words (Molt-4 cells [1])	Clint [2, 7] [µL/min/mg protein]	Clint [3, 8] [µL/min/mg protein]	also measured
O=C1CCC(n2nnc3ccc(NCCN4CCC(CN5CCN(CC#Cc6ccc(OCCCc7ccc(N8CCc9cccc(C(=O)Nc%10nc%11ccccc%11s%10)c9C8)nc7C(=O)O)c(F)c6)CC5)CC4)cc3c2=O)C(=O)N1 (stereo not shown) [APQ11]	< 10				killing Molt-4 cells at different concentrations (Figure 1), in words (Molt-4 cells [1]): comparable to A-1331852; EC50 (Molt-4 cells [1]; [6]): < 10 nM
COc1cc(N2CCN(CC#Cc3ccc(OCCCc4ccc(N5CCc6cccc(C(=O)Nc7nc8ccccc8s7)c6C5)nc4C(=O)O)c(F)c3)CC2)ccc1N1CCC(=O)NC1=O [APQ902a]	< 10				EC50 (Molt-4 cells [1]; [6]): < 10 nM
Cc1c(-c2ccc(N3CCc4cccc(C(=O)Nc5nc6ccccc6s5)c4C3)nc2C(=O)NCCn2cc(COCCNc3cccc4c3C(=O)N(C3CCC(=O)NC3=O)C4=O)nn2)cnn1CC12CC3CC(CC(C3)C1)C2 (stereo not shown) [APR1]	< 10	good cellular activity similar to those of the targeting ligand per se			
Cc1c(-c2ccc(N3CCc4cccc(C(=O)Nc5nc6ccccc6s5)c4C3)nc2C(=O)NCCn2cc(COCCOCCNc3cccc4c3C(=O)N(C3CCC(=O)NC3=O)C4=O)nn2)cnn1CC12CC3CC(CC(C3)C1)C2 (stereo not shown) [APR2]	< 10	good cellular activity similar to those of the targeting ligand per se			
Cc1c(-c2ccc(N3CCc4cccc(C(=O)Nc5nc6ccccc6s5)c4C3)nc2C(=O)NCCn2cc(COCCOCCOCCNc3cccc4c3C(=O)N(C3CCC(=O)NC3=O)C4=O)nn2)cnn1CC12CC3CC(CC(C3)C1)C2 (stereo not shown) [APR3]	< 10	good cellular activity similar to those of the targeting ligand per se			
Cc1c(-c2ccc(N3CCc4cccc(C(=O)Nc5nc6ccccc6s5)c4C3)nc2C(=O)NCCn2cc(COCCOCCOCCOCCNc3cccc4c3C(=O)N(C3CCC(=O)NC3=O)C4=O)nn2)cnn1CC12CC3CC(CC(C3)C1)C2 (stereo not shown) [APR4]	< 10	good cellular activity similar to those of the targeting ligand per se			
[2H]C1([2H])Cc2cccc(C(=O)Nc3nc4ccccc4s3)c2CN1c1ccc(-c2cnn(CC34CC5CC(CC(C5)C3)C4)c2C)c(C(=O)NCCOCCOCCOCCNc2cccc3c2C(=O)N(C2CCC(=O)NC2=O)C3=O)n1 (stereo not shown) [Compound A13D6-PF3]	< 10	good cellular activity similar to those of the targeting ligand per se			
[2H]c1c([2H])c([2H])c2sc(NC(=O)c3cccc4c3CN(c3ccc(-c5cnn(CC67CC8CC(CC(C8)C6)C7)c5C)c(C(=O)O)n3)CC4)nc2c1[2H] [Compound A13D-1]			266.89	235.82	T1/2 [2, 7]: 0.0865 h; T1/2 [3, 8]: 0.098 h
[2H]C1([2H])c2c(C(=O)Nc3nc4ccccc4s3)cccc2C([2H])([2H])C([2H])([2H])N1c1ccc(-c2cnn(CC34CC5CC(CC(C5)C3)C4)c2C)c(C(=O)O)n1 [Compound A13D-2]			18.15	55.31	T1/2 [2, 7]: 1.273 h; T1/2 [3, 8]: 0.4177 h
[2H]C1([2H])CN(c2ccc(-c3cnn(CC45CC6CC(CC(C6)C4)C5)c3C)c(C(=O)O)n2)Cc2c(C(=O)Nc3nc4ccccc4s3)cccc21 [Compound A13D-5]			17.61	53.56	T1/2 [2, 7]: 1.312 h; T1/2 [3, 8]: 0.4313 h
[2H]C1([2H])Cc2cccc(C(=O)Nc3nc4ccccc4s3)c2CN1c1ccc(-c2cnn(CC34CC5CC(CC(C5)C3)C4)c2C)c(C(=O)O)n1 [Compound A13D-6]			14.07	50.18	T1/2 [2, 7]: 1.642 h; metabolic stability in liver microsomes, in words ([3]; human and mouse liver microsomes, compared with A-1331852 and molecules deuterated at other sites): better metabolic stability in liver microsomes; T1/2 [3, 8]: 0.4603 h
Cc1c(-c2ccc(N3CCc4cccc(C(=O)Nc5nc6ccccc6s5)c4C3)nc2C(=O)O)cnn1CC12CC3CC(CC(C3)C1)C2 [Compound A1331852, reference compound]					cell killing activity after addition of pomalidomide (+poma) compared to without (-poma) (Molt-4 cells [4]): only slightly affected
CN(C)CC#Cc1ccc(OCCCc2sc(N3CCc4cccc(C(=O)Nc5nc6ccccc6s5)c4C3)nc2C(=O)O)c(F)c1 [Compound A-1155463, reference compound]					EC50 (Molt-4 cells [1]; Molt-4 cells, three days, CCK-8, read-out: EC50 (Molt-4)): < 10 nM
O=C(Nc1nc2ccccc2s1)c1cccc2c1CN(c1ccc(CCCOc3ccc(C#CCN4CCNCC4)cc3F)c(C(=O)O)n1)CC2 [Compound C1]	10 to 100	higher than that of the commercially available control molecule ABT-263, but lower than those of A-1331852 and A-1155463	4.90	7.36	half-life at 1 µM [2, 7]: 4.71 h; microsomal CLint at 1 µM ([2]; mouse liver microsomes, read-out: clearance rate (metabolic clearance rate)): 4.9 µL/min/mg; half-life at 1 µM [3, 8]: 3.14 h; microsomal CLint at 1 µM ([3]; human liver microsomes, read-out: clearance rate (metabolic clearance rate)): 7.36 µL/min/mg; cell killing activity after addition of pomalidomide (+poma) compared to without (-poma) (Molt-4 cells [4]): only slightly affected; killing Molt-4 cells at different concentrations (Figure 1), in words (Molt-4 cells [1]): higher percentage for killing Molt-4 cells than those of ABT-263 and DT-2216, but lower than those of A-1331852 and A-1155463; EC50 (Molt-4 cells [1]; [6]): 10 to 100 nM
Cc1ncsc1-c1ccc([C@H](C)NC(=O)[C@@H]2C[C@@H](O)CN2C(=O)[C@@H](NC(=O)CCCCCC(=O)N2CCN(CC[C@H](CSc3ccccc3)Nc3ccc(S(=O)(=O)NC(=O)c4ccc(N5CCN(CC6=C(c7ccc(Cl)cc7)CCC(C)(C)C6)CC5)cc4)cc3S(=O)(=O)C(F)(F)F)CC2)C(C)(C)C)cc1 [DT-2216, reference compound]					cell killing activity after addition of pomalidomide (+poma) compared to without (-poma) (Molt-4 cells [4]): almost unaffected
